Assay results taken from ChEMBL document CHEMBL1201862, “PubChem BioAssay data set” (2004).
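Where inhibition never reached the appropriate level, the endpoint shown equals the highest concentration tested. Otherwise, values were interpolated linearly from a five-concentration, 48-hour dose response in 96-well plates. GI50: concentration for 50% inhibition of growth.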 Calls of active or inactive are those of the source. Rule as the data show it: active = GI50 up to about 1.1 µM and inactive = higher.

Tests used:
Experiment in all cases: NCI tumour cell line growth inhibition, 48 h
[1] = system: M14
[2] = system: NCI-H23
[3] = system: UO-31
[4] = system: RPMI-8226
[5] = system: CAKI-1
[6] = system: U-251
[7] = system: LOX IMVI
[8] = system: OVCAR-8
[9] = system: T47D
[10] = system: SK-OV-3
[11] = system: TK-10
[12] = system: MOLT-4
[13] = system: HL-60
[14] = system: NCI-H522
[15] = system: HT-29
[16] = system: HCT-116
[17] = system: HCT-15
[18] = system: IGROV-1
[19] = system: HOP-62
[20] = system: SF-539

Row | SMILES | GI50 [1] | GI50 [2] | GI50 [3] | GI50 [4] | GI50 [5] | GI50 [6] | GI50 [7] | GI50 [8] | GI50 [9] | GI50 [10] | GI50 [11] | GI50 [12] | GI50 [13] | GI50 [14] | GI50 [15] | GI50 [16] | GI50 [17] | GI50 [18] | GI50 [19] | GI50 [20]
1 | CCOP(=O)(OCC)C(Nc1ccc(Br)cc1)c1cccc([N+](=O)[O-])c1 (stereo not given) | 17.1 µM (inactive) | 20.7 µM (inactive) | 10.8 µM (inactive) | 28.2 µM (inactive) | 22.1 µM (inactive) | 18.2 µM (inactive) | 10.4 µM (inactive) | 24.6 µM (inactive) | 12.6 µM (inactive) | 14.6 µM (inactive) | 30.5 µM (inactive) | 17 µM (inactive) | 20 µM (inactive) | 13.6 µM (inactive) | 16.8 µM (inactive) | 12.7 µM (inactive) | 14.5 µM | 22.1 µM (inactive) | 17.5 µM (inactive) | 19.6 µM (inactive)
2 | Nc1ccn(C2CCC(CO)O2)c(=S)n1 (stereo not given) | > 100 µM (inactive) | > 100 µM (inactive) | > 100 µM (inactive) | 35.8 µM (inactive) | > 100 µM (inactive) | > 100 µM (inactive) | > 100 µM (inactive) | > 100 µM (inactive) | > 100 µM (inactive) | > 100 µM (inactive) | > 100 µM (inactive) | > 100 µM (inactive) | > 100 µM (inactive) | > 100 µM (inactive) | > 100 µM (inactive) | > 100 µM (inactive) | > 100 µM | > 100 µM (inactive) | > 100 µM (inactive) | > 100 µM (inactive)
3 | Cc1c(C)n(-c2ccccc2)c2nc([S+](C)[O-])nc([S+](C)[O-])c12 (stereo not given) | 2.21 µM (inactive) | 13.9 µM (inactive) | 7.74 µM (inactive) | 1.66 µM (inactive) | 1.34 µM (inactive) | 8.53 µM (inactive) | 1.81 µM (inactive) | 4.09 µM (inactive) | 2.44 µM (inactive) | 18.5 µM (inactive) | 1.52 µM (inactive) | 2.33 µM (inactive) | 1.38 µM (inactive) | 1.89 µM (inactive) | 6.05 µM (inactive) | 2.14 µM (inactive) | 5 µM | 3.79 µM (inactive) | 18.4 µM (inactive) | 3.85 µM (inactive)
4 | COc1ccc(C(CC(C)=O)c2c(O)c3ccccc3oc2=O)cc1OC (stereo not given) | > 100 µM (inactive) | > 100 µM (inactive) | > 100 µM (inactive) | > 100 µM (inactive) | > 100 µM (inactive) | > 100 µM (inactive) | > 100 µM (inactive) | > 100 µM (inactive) | > 100 µM (inactive) | > 100 µM (inactive) | > 100 µM (inactive) | > 100 µM (inactive) | > 100 µM (inactive) | > 100 µM (inactive) | > 100 µM (inactive) | > 100 µM (inactive) | > 100 µM | > 100 µM (inactive) | > 100 µM (inactive) | > 100 µM (inactive)
5 | CCN(CC)CC1CCCCN1CC(=O)N1c2ccccc2C(=O)Nc2cccnc21 (stereo not given) [OTENZEPAD] | 68.9 µM (inactive) | 52 µM (inactive) | 1.97 µM (inactive) | 35.6 µM (inactive) | > 100 µM (inactive) | 60.5 µM (inactive) | 18.3 µM (inactive) | 45.4 µM (inactive) | > 100 µM (inactive) | > 100 µM (inactive) | > 100 µM (inactive) | 21 µM (inactive) | 17.4 µM (inactive) | > 100 µM (inactive) | 21.8 µM (inactive) | 12.2 µM (inactive) | 38.6 µM | > 100 µM (inactive) | 34.7 µM (inactive) | 40.6 µM (inactive)
6 | CCCNC1=C2CC(C)CC(OC)[C@@H](O)[C@H](C)/C=C(\C)C(OC(N)=O)C(OC)/C=C\C=C(/C)C(=O)NC(=CC1=O)C2=O (stereo not given in full) | 0.561 µM (active) | 0.0847 µM (active) | 2.94 µM (inactive) | 0.762 µM (active) | 11.5 µM (inactive) | 0.579 µM (active) | 0.103 µM (active) | 0.337 µM (active) | 0.476 µM (active) | 0.101 µM (active) | 0.201 µM (active) | 0.332 µM (active) | 0.214 µM (active) | 0.00678 µM (active) | 0.0101 µM (active) | 0.231 µM (active) | 0.321 µM | 0.498 µM (active) | 0.245 µM (active) | 0.698 µM (active)
7 | N#C[BH2-][n+]1ccc(C(=O)NNCc2cccc(C(F)(F)F)c2)cc1 | 8.75 µM (inactive) | 12.2 µM (inactive) | 11.9 µM (inactive) | 21.4 µM (inactive) | 37.9 µM (inactive) | 7.71 µM (inactive) | 4.26 µM (inactive) | 3.98 µM (inactive) | 20 µM (inactive) | 8.93 µM (inactive) | 27.3 µM (inactive) | 17.6 µM (inactive) | 23.4 µM (inactive) | 16.3 µM (inactive) | 6.01 µM (inactive) | 15.2 µM (inactive) | 21.3 µM | 30.1 µM (inactive) | 12.8 µM (inactive) | 4.08 µM (inactive)
